Laboratory results taken from patent publication US20240400577A1, “MODULATORS OF PROTEIN KINASES” (VIBLIOME THERAPEUTICS, LLC, priority 2021, published 2024).

Columns and labels:
Experiment in all cases: Kinase panel enzymatic inhibition assay (Nanosyn)
Type in all cases: biochemical
Conditions in all cases: compound 5 μM; ATP at Km; 30-minute pre-incubation
COT1 = target: T1, COT1 (Homo sapiens, UniProt P41279)
T1 construct: purchased Nanosyn (contract screening)
Summary of the method: (§1)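 Inhibition is expressed as percent at 5 μM or as IC50, with ATP set at the Km of each kinase and a 30-minute compound pre-incubation. Detection used an accepted enzymatic format such as Caliper mobility shift.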

FGR = target: T2, FGR (Homo sapiens, UniProt P09769)
T2 construct: purchased Nanosyn (contract screening)
Summary of the method: as §1

FYN = target: T3, FYN (Homo sapiens, UniProt P06241)
T3 construct: purchased Nanosyn (contract screening)
Summary of the method: as §1

HCK = target: T4, HCK (Homo sapiens, UniProt P08631)
T4 construct: purchased Nanosyn (contract screening)
Summary of the method: as §1

KDR = target: T5, KDR (Homo sapiens, UniProt P35968)
T5 construct: purchased Nanosyn (contract screening)
Summary of the method: as §1

KIT = target: T6, KIT (Homo sapiens, UniProt P10721)
T6 construct: purchased Nanosyn (contract screening)
Summary of the method: as §1

LCK = target: T7, LCK (Homo sapiens, UniProt P06239)
T7 construct: purchased Nanosyn (contract screening)
Summary of the method: as §1

LYNb = target: T8, LYNb (Homo sapiens, UniProt P07948)
T8 construct: purchased Nanosyn (contract screening)
Summary of the method: as §1

MAP4K2 = target: T9, MAP4K2 (Homo sapiens, UniProt Q12851)
T9 construct: purchased Nanosyn (contract screening)
T9 sequence (Q12851 1-820): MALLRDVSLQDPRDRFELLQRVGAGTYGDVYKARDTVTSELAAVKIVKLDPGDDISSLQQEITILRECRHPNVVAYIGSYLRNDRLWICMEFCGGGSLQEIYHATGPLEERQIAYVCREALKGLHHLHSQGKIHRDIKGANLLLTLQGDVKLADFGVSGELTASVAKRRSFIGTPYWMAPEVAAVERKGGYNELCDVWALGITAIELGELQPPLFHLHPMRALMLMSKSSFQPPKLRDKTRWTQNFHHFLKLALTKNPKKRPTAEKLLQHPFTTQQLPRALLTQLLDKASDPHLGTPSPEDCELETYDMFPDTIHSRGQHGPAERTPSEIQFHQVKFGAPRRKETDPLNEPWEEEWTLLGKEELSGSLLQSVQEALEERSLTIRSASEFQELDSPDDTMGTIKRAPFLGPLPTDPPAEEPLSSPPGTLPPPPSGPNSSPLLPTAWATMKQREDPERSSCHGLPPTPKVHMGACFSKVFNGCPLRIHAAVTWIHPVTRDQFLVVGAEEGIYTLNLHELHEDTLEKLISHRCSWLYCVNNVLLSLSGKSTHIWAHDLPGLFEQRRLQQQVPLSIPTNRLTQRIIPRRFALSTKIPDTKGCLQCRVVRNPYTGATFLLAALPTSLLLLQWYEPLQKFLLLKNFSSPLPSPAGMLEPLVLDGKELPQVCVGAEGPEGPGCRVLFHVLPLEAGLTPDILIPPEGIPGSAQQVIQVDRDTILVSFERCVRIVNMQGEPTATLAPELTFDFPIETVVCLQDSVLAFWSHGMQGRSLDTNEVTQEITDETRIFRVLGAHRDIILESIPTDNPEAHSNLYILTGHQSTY
Summary of the method: as §1

PKCb1 = target: T10, PKCb1 (Homo sapiens, UniProt P05771)
T10 construct: Nanosyn (contract laboratory that ran the panel)
Summary of the method: as §1

SPHK2 = target: T11, SPHK2 (Homo sapiens, UniProt Q9NRA0)
T11 construct: Nanosyn (contract laboratory that ran the panel)
T11 sequence (Q9NRA0 1-654): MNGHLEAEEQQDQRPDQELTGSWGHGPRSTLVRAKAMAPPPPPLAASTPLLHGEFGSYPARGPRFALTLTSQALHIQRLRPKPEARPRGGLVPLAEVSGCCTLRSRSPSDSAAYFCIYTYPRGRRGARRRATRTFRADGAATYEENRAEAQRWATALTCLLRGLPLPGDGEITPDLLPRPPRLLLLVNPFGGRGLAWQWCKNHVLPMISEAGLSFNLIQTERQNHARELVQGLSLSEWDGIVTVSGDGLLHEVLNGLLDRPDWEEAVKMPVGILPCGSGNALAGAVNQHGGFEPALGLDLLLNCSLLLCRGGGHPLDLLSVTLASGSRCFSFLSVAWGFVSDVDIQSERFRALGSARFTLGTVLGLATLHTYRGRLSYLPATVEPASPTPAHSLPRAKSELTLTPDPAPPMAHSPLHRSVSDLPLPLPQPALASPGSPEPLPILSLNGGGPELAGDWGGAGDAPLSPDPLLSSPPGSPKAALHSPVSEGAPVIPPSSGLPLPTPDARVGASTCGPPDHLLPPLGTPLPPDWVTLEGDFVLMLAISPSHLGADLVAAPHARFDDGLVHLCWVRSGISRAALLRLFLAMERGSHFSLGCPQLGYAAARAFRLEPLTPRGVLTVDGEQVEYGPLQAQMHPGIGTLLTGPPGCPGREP
Summary of the method: as §1

SRC = target: T12, SRC (Homo sapiens, UniProt P12931)
T12 construct: Nanosyn (contract laboratory that ran the panel)
Summary of the method: as §1

p38b = target: T13, p38b (Homo sapiens, UniProt Q15759)
T13 construct: Nanosyn (contract laboratory that ran the panel)
Summary of the method: as §1

T2 sequence (P09769 whole entry): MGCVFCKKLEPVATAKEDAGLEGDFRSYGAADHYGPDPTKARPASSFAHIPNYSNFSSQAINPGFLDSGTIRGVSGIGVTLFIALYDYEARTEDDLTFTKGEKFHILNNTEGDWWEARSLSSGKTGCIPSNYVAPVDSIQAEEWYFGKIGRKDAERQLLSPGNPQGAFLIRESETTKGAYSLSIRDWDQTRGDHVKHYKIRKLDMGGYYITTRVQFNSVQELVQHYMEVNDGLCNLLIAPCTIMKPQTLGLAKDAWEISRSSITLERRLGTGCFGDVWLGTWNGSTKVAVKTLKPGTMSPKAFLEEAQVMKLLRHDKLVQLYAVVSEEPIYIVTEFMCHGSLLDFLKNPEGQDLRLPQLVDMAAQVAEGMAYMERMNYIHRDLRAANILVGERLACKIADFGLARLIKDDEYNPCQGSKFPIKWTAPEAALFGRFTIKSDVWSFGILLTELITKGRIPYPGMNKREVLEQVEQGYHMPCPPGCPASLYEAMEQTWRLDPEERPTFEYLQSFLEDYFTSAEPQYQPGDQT
T5 sequence (P35968 20-1356): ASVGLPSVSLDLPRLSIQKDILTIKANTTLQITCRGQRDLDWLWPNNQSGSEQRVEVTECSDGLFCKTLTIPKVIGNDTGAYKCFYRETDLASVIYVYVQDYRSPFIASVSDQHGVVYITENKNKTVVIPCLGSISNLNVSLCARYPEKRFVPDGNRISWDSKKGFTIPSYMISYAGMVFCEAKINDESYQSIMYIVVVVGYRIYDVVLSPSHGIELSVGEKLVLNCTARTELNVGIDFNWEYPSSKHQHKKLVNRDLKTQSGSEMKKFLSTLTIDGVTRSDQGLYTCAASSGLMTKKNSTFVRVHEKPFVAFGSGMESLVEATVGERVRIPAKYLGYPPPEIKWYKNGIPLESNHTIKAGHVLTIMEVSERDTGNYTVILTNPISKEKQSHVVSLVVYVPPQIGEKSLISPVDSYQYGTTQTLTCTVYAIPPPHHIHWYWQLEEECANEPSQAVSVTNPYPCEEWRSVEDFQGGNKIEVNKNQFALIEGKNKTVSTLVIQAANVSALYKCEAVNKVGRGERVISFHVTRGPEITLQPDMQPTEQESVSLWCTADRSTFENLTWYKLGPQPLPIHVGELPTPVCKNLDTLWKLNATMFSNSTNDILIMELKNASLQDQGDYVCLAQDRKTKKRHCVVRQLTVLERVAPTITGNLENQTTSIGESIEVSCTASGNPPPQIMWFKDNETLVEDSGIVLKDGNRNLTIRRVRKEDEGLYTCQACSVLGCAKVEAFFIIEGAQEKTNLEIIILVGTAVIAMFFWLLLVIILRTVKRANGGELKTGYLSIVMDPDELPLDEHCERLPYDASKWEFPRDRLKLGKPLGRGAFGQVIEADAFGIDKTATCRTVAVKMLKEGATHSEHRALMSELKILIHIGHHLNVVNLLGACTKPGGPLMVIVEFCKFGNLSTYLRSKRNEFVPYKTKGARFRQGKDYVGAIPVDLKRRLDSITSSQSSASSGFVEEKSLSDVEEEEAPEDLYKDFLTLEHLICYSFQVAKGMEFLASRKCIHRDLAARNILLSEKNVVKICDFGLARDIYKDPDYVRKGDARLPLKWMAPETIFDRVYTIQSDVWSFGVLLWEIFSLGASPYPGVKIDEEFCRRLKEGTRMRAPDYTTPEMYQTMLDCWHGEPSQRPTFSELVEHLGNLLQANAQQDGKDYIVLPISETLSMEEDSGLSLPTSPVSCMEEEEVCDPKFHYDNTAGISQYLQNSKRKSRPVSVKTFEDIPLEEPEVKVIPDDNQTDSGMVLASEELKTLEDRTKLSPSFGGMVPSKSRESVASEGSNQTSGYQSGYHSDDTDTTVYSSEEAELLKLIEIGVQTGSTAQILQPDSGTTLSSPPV
T10 sequence (P05771 whole entry): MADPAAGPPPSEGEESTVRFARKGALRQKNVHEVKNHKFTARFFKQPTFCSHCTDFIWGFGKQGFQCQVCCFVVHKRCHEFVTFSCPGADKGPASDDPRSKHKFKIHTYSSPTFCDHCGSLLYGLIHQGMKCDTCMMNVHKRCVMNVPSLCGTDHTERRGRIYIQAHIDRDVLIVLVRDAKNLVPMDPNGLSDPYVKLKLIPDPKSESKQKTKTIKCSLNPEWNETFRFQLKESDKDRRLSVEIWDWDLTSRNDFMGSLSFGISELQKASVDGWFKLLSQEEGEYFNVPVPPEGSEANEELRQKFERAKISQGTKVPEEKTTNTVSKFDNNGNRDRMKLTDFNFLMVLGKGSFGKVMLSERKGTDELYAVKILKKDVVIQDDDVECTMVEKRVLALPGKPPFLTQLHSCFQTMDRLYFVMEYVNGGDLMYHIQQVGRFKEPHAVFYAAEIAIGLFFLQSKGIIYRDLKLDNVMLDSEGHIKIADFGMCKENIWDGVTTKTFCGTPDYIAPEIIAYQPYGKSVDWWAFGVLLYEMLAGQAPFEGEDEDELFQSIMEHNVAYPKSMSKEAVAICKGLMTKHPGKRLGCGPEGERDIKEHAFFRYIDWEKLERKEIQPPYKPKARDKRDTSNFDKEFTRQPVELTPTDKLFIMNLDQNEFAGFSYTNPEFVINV
T6 sequence (P10721 26-976): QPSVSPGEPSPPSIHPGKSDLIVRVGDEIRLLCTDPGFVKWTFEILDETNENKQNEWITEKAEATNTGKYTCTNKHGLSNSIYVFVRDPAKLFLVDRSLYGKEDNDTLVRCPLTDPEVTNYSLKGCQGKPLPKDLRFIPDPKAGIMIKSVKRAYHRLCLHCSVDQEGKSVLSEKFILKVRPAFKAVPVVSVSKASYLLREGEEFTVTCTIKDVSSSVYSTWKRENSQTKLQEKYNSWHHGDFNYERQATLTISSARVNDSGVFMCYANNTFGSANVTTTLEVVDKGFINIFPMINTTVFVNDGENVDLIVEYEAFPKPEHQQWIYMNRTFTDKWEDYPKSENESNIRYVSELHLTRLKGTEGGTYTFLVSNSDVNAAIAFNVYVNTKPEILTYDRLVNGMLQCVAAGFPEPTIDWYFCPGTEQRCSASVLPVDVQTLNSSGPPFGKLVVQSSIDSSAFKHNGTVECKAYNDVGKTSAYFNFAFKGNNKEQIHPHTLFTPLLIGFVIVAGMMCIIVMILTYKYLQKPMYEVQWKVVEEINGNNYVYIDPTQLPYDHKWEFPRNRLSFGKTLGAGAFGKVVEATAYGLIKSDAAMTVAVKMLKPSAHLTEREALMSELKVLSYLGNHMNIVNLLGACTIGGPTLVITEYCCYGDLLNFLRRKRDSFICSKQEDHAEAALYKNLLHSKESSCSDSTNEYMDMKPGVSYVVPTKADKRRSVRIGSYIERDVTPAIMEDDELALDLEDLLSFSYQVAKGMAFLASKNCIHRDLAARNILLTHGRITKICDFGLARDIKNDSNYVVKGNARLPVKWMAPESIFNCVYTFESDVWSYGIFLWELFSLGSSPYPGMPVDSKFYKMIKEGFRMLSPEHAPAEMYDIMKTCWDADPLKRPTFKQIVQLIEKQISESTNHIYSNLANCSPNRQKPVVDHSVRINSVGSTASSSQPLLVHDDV
T8 sequence (P07948 1-491 isoform P07948-2): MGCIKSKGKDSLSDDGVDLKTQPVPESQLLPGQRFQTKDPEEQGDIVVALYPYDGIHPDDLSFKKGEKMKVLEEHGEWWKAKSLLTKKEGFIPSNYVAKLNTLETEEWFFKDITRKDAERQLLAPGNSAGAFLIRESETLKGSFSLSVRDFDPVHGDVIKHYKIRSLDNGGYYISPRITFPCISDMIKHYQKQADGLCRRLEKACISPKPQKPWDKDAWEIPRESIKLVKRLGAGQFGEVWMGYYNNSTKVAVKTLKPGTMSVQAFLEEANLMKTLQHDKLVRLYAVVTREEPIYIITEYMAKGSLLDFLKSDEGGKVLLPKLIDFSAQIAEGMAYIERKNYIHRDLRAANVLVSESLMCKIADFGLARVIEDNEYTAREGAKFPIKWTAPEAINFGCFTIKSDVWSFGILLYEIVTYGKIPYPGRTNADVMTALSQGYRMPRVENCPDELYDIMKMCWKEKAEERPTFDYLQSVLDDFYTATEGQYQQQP
T12 sequence (P12931 whole entry): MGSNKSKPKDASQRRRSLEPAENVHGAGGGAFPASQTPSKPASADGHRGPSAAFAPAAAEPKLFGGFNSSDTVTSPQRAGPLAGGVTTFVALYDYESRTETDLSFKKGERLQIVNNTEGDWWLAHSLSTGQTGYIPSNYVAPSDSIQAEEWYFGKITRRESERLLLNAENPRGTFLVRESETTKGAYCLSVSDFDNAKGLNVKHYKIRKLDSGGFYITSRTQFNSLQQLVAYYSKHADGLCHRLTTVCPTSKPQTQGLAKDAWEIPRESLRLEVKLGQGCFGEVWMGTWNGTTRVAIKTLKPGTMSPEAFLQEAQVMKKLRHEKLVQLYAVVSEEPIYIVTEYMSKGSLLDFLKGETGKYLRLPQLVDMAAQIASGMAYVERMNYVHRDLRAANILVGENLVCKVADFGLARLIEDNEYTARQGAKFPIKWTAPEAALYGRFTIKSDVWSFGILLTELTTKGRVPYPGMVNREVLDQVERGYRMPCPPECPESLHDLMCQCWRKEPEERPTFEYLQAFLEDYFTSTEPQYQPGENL
T3 sequence (P06241 whole entry): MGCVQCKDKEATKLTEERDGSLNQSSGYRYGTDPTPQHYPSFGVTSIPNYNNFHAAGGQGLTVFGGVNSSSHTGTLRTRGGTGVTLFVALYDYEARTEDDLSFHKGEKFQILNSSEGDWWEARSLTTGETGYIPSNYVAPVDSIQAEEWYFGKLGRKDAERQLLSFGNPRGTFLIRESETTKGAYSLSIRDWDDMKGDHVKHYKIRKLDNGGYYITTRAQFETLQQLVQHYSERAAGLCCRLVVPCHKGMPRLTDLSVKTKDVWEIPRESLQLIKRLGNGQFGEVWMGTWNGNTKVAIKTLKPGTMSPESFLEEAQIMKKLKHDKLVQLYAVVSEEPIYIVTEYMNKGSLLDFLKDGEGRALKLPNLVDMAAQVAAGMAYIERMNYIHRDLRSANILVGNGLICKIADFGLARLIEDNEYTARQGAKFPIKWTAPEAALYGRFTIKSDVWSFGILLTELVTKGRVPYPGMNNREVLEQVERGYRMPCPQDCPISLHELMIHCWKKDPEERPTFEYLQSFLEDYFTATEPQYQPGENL

| SMILES | inhibition at 5 µM (COT1) | inhibition at 5 µM (FGR) | inhibition at 5 µM (FYN) | inhibition at 5 µM (HCK) | inhibition at 5 µM (KDR) | inhibition at 5 µM (KIT) | inhibition at 5 µM (LCK) | inhibition at 5 µM (LYNb) | inhibition at 5 µM (MAP4K2) | inhibition at 5 µM (PKCb1) | inhibition at 5 µM (SPHK2) | inhibition at 5 µM (SRC) | inhibition at 5 µM (p38b) |
| --- | --- | --- | --- | --- | --- | --- | --- | --- | --- | --- | --- | --- | --- |
| Cc1ccc(NC(=O)c2cc(S(C)(=O)=O)n(-c3ccc(F)cc3)n2)cc1-c1cc(N2CCOCC2)c(=O)n(C)c1 [Ex12, 1-(4-fluorophenyl)-N-(4-methyl-3-(1-methyl-5-morpholino-6-oxo-1,6-dihydropyridin-3-yl)phenyl)-5-(methylsulfonyl)-1H-pyrazole-3-carboxamide] | < 79% | < 79% | < 79% | < 79% | < 79% | < 79% | < 79% | < 79% | < 79% | < 79% | < 79% | < 79% | < 79% |
| Cc1ccc(NC(=O)c2cc(S(C)(=O)=O)n(-c3ccc(F)cc3)n2)cc1Nc1nccc(-c2cccnc2N)n1 [Ex13, N-(3-((4-(2-aminopyridin-3-yl)pyrimidin-2-yl)amino)-4-methylphenyl)-1-(4-fluorophenyl)-5-(methylsulfonyl)-1H-pyrazole-3-carboxamide] | < 79% | < 79% | < 79% | < 79% | < 79% | ≥ 95% | 90 to 94% | ≥ 95% | < 79% | < 79% | 80 to 89% | < 79% | < 79% |
| CCOC(=O)Nc1cn2nc(Nc3cc(NC(=O)c4cc([S+](C)[O-])n(-c5ccc(F)cc5)n4)ccc3C)ccc2n1 (stereo not drawn) [Ex18, ethyl (6-((5-(1-(4-fluorophenyl)-5-(methylsulfinyl)-1H-pyrazole-3-carboxamido)-2-methylphenyl)amino)imidazo[1,2-b]pyridazin-2-yl)carbamate] | < 79% | 80 to 89% | ≥ 95% | ≥ 95% | < 79% | 80 to 89% | ≥ 95% | < 79% | < 79% | < 79% | 80 to 89% | 80 to 89% | 80 to 89% |

Results, then the compound that gave them:

| inhibition at 5 µM (COT1) | inhibition at 5 µM (FGR) | inhibition at 5 µM (FYN) | inhibition at 5 µM (HCK) | inhibition at 5 µM (KDR) | inhibition at 5 µM (KIT) | inhibition at 5 µM (LCK) | inhibition at 5 µM (LYNb) | inhibition at 5 µM (MAP4K2) | inhibition at 5 µM (PKCb1) | inhibition at 5 µM (SPHK2) | inhibition at 5 µM (SRC) | inhibition at 5 µM (p38b) | SMILES |
| --- | --- | --- | --- | --- | --- | --- | --- | --- | --- | --- | --- | --- | --- |
| < 79% | 80 to 89% | 90 to 94% | 90 to 94% | 90 to 94% | 90 to 94% | ≥ 95% | ≥ 95% | < 79% | < 79% | < 79% | < 79% | < 79% | Cc1ccc(NC(=O)c2cc(S(C)(=O)=O)n(-c3ccc(F)cc3)n2)cc1C#Cc1cnc2cccnn12 [Ex14, 1-(4-fluorophenyl)-N-(3-(imidazo[1,2-b]pyridazin-3-ylethynyl)-4-methylphenyl)-5-(methylsulfonyl)-1H-pyrazole-3-carboxamide] |
| < 79% | 80 to 89% | ≥ 95% | 80 to 89% | 80 to 89% | ≥ 95% | ≥ 95% | ≥ 95% | < 79% | < 79% | < 79% | 90 to 94% | 80 to 89% | CCOC(=O)Nc1cn2nc(Nc3cc(NC(=O)c4cc(S(C)(=O)=O)n(-c5ccc(F)cc5)n4)ccc3C)ccc2n1 [Ex15, ethyl (6-((5-(1-(4-fluorophenyl)-5-(methylsulfonyl)-1H-pyrazole-3-carboxamido)-2-methylphenyl)amino)imidazo[1,2-b]pyridazin-2-yl)carbamate] |
| < 79% | < 79% | < 79% | < 79% | < 79% | < 79% | < 79% | < 79% | < 79% | < 79% | < 79% | < 79% | < 79% | CNC(=O)c1cc(Oc2ccc(NC(=O)c3cc(S(C)(=O)=O)n(-c4ccc(F)cc4)n3)c(F)c2)ccn1 [Ex17, 4-(3-fluoro-4-(1-(4-fluorophenyl)-5-(methylsulfonyl)-1H-pyrazole-3-carboxamido)phenoxy)-N-methylpicolinamide] |
